The source of these data is patent US6340764B1, “Reference compound for use in the analysis of levosimendan batches” (Orion Corporation, priority 1998, dated 2002).

SMILES strings stand for the structures.

This series concerns bacterial mutagenity test (Ames test). Put plainly: bacterial mutagenity test (Ames test). It is filed as cell-based. A general note: In the Ames test, an excess of revertant colonies over the control signals mutagenicity.

Regarding `CC1CC(=O)OC1(N=[N+]=[N-])c1ccc(NN=C(C#N)C#N)cc1` (centres unmarked) [Compound (I), [[4-(2-azido-3-methyl-5-oxotetrahydrofuran-2-yl)phenyl]hydrazono]propanedinitrile], the “genotoxic / mutagenic properties in the bacterial mutagenity test (Ames test)” value was “potent mutagen”.

For `CC1CC(=O)NN=C1c1ccc(NN=C(C#N)C#N)cc1` (single isomer, unassigned; (-)) [levosimendan, (−)-enantiomer of [[4-(1,4,5,6-tetrahydro-4-methyl-6-oxo-3-pyridazinyl)phenyl]hydrazono]propanedinitrile], the “genotoxic / mutagenic properties in the bacterial mutagenity test (Ames test)” value is on record as “show potential genotoxic properties occasionally”.
